These results are taken from paper PMC6553790 (PLoS Pathogens, 2019).

Assay [1] has as its system P. falciparum Cam3.II lines. As to the kind of experiment: Isobologram analyses (fixed-ratio drug combinations). The assay is classed as cell-based, Plasmodium falciparum. The settings on record: for Interaction with WLW (isobologram) / Interaction with WLL (isobologram): early rings and trophozoites; for Interaction with WLW (isobologram): Cam3.II K13WT and K13C580Y. On the procedure: Assays were performed with fixed ratios of drug combinations (1:0, 4:1, 2:1, 1:1, 1:2, 1:4, and 0:1), tested in duplicate. Combinations were prepared from 16×IC50 drug stocks and tested across a range of two-fold dilutions. Assays were conducted with asynchronous cultures exposed for 72 hr or with tightly synchronized rings or trophozoites (tested at 0–3 hr or 24–27 hr post-invasion, respectively) exposed for 3 hr. Post-pulse drug washouts were conducted as described above for in vitro determination of IC50 levels. IC50 values were derived for each compound tested alone, and fractional IC50 (FIC50) values were determined for each compound tested in combination (FIC50 = […]) and plotted for each drug combination. For each combination, the mean of the sums of FIC50 values at each combination (mean ΣFIC50) was also calculated and the results illustrated using heat maps.

Assay [2] relates to P. falciparum Cam3.II lines. As to the kind of experiment: Stage-specificity 1 hr pulse survival assay. The assay is classed as cell-based, Plasmodium falciparum. The note with it: 150 nM. On the procedure:
All stage-specificity tests were concluded 72 hr from the start of the experiment. Assays were performed in duplicate. Parasites were prepared by synchronizing ring stages with 5% D-Sorbitol and later isolating the schizonts over a 75% Percoll gradient. These schizonts were allowed to reinvade fresh RBCs at 2% hematocrit. Parasites were tested as purified schizonts, early rings, mid rings, late rings or trophozoites (~45–47, 0–3, 10–13, 18–21 and 24–27 hr post-invasion, respectively), and exposed to drug or DMSO vehicle control in 1 mL volumes. Parasites were seeded at 0.5% parasitemia and 1% hematocrit in a 48-well plate.
Drug-treated parasites were washed as previously described for the RSA0-3h. Briefly, 1 mL cultures were transferred to 15 mL conical tubes, centrifuged at 800×g for 5 minutes to pellet cells, and the culture medium containing drug was carefully removed. Cells were subsequently resuspended in 10 mL drug-free medium, centrifuged, and the wash medium removed. Finally, cells were resuspended in 1 mL of fresh drug-free medium, transferred to a new well, and returned to standard culture conditions for the duration of the assay. Parasitemias were measured by flow cytometry and the survival of drug-treated parasites was calculated as a percent of DMSO-treated control cultures.

Another assay relates to Plasmodium parasites. The settings on record: cited from earlier work.
The mark [3] stands for this setting: combined with WLL, Asynchronous, 72 hr, Cam3.II K13WT.
The mark [4] stands for this setting: combined with WLL, Rings, 3 hr exposure, Cam3.II K13C580Y.
Setting [5] is: combined with WLL, Rings, 3 hr exposure, Cam3.II K13WT.
Where [6] appears, read: combined with WLL, Trophozoites, 3 hr exposure, Cam3.II K13C580Y.
Where [7] appears, read: combined with WLL, Trophozoites, 3 hr exposure, Cam3.II K13WT.
Setting [8] is: combined with WLW, Asynchronous, 72 hr, Cam3.II K13C580Y.
[9] abbreviates: combined with WLW, Asynchronous, 72 hr, Cam3.II K13WT.
The mark [10] stands for this setting: combined with WLW, Rings, 3 hr exposure, Cam3.II K13C580Y.
Where [11] appears, read: combined with WLW, Rings, 3 hr exposure, Cam3.II K13WT.
Where [12] appears, read: combined with WLW, Trophozoites, 3 hr exposure, Cam3.II K13C580Y.
Where [13] appears, read: combined with WLW, Trophozoites, 3 hr exposure, Cam3.II K13WT.
The mark [14] stands for this setting: combined with WLL, Asynchronous, 72 hr, Cam3.II K13C580Y.

Where only a bound is given, the exact number is not on record here.

`C[C@H]1[C@@H](O)O[C@@H]2O[C@@]3(C)CC[C@H]4[C@H](C)CC[C@@H]1[C@@]24OO3` [DHA, dihydroartemisinin]: the “Interaction with WLW (isobologram)” value in assay [1] (asynchronous parasites) is “synergy”. Besides, the “Mean of the sums of FIC50 (mean ΣFIC50)” value in assay [1] (setting [3]) was 0.89; in assay [1] (setting [4]) it was 0.77; in assay [1] (setting [5]) it was 0.69; in assay [1] (setting [6]), 0.68; in assay [1] (setting [7]), 0.70; in assay [1] (setting [8]), 0.71. In addition, the “Mean of the sums of FIC50 (mean ΣFIC50)” value in assay [1] (setting [9]) is on record as 0.66; in assay [1] (setting [10]), 0.44; in assay [1] (setting [11]) it was 0.43; in assay [1] (setting [12]), 0.73; in assay [1] (setting [13]), 0.69. In assay [1], the “Interaction with WLL (isobologram)” value is given as “Synergy”. Besides, the Mean percent survival in assay [2] (Early rings (0–3 hpi), Cam3.II K13C580Y) is 57.9 ± 5.6%; in assay [2] (Early rings (0–3 hpi), Cam3.II K13WT), 46.8 ± 10.6%; in assay [2] (Late rings (18–21 hpi), Cam3.II K13C580Y), 13.5 ± 3.1%; in assay [2] (Late rings (18–21 hpi), Cam3.II K13WT) it was 18.9 ± 5.6%; in assay [2] (Mid rings (10–13 hpi), Cam3.II K13C580Y) it was 29.1 ± 3.4%; in assay [2] (Mid rings (10–13 hpi), Cam3.II K13WT), 35.4 ± 2.7%. Further, the Mean percent survival in assay [2] (Schizonts (45–48 hpi), Cam3.II K13C580Y) came out at 71.9 ± 13.6%; in assay [2] (Schizonts (45–48 hpi), Cam3.II K13WT), 59.0 ± 5.3%; in assay [2] (Trophs (24–27 hpi), Cam3.II K13C580Y), 4.1 ± 0.6%; in assay [2] (Trophs (24–27 hpi), Cam3.II K13WT), 2.3 ± 0.1%.

With `CC(C)(C)NC(=O)C[C@H](NC(=O)CCc1ccccc1)C(=O)NCCNC(=O)c1cccc(-c2ccccc2)c1` [PKS21004], the “Resistance of selected parasites, fold increase over the sensitive parent” value in the assay with Plasmodium parasites was greater than 130 fold.

For `O=C(CC1NCCCC1O)Cn1cnc2cc(Br)c(Cl)cc2c1=O` (stereo not shown) [HFG, halofuginone], the “Interaction with WLL or WLW” value in assay [1] (asynchronous parasites, 72 hr) is recorded as “antagonism”. For the same compound, the “Mean of the sums of FIC50 (mean ΣFIC50)” value in assay [1] (setting [14]) is given as 1.46; in assay [1] (setting [3]) it was 1.47; in assay [1] (setting [8]) it was 1.53; in assay [1] (setting [9]), 1.42.

As to `c1cc([C@H]2CC[C@]3(CC2)OO[C@]2(O3)C3CC4CC(C3)CC2C4)ccc1OCCN1CCOCC1` [OZ439], the “Interaction with WLW (isobologram)” value in assay [1] (asynchronous parasites) is “synergy”. For the same compound, the “Mean of the sums of FIC50 (mean ΣFIC50)” value in assay [1] (setting [14]) was 1.10; in assay [1] (setting [3]) it was 1.21; in assay [1] (setting [4]), 0.79; in assay [1] (setting [5]) it was 0.65; in assay [1] (setting [6]), 0.67; in assay [1] (setting [7]), 0.64. The “Mean of the sums of FIC50 (mean ΣFIC50)” value in assay [1] (setting [8]) came to 0.76; in assay [1] (setting [9]), 0.85; in assay [1] (setting [10]), 0.40; in assay [1] (setting [11]) it was 0.35; in assay [1] (setting [12]), 0.51; in assay [1] (setting [13]) it was 0.48. The “Interaction with WLL (isobologram)” value in assay [1] is reported as “Synergy”.
